Measured values taken from patent publication US20080064760A1, “Spontaneously Dispersible Pharmaceutical Composition” (priority 2004, published 2008).
≈ marks a conversion by molar mass, not a printed value.

What was measured:
[1] = Log P in octanol; type: physicochemical
Experimental: (§1) The melting range of Compound I is from 120.5-151° C. In both Samples 4A and 4B, the drug loading is 4% or 20 mg/capsule.

[2] = Solubility of Compound I; type: physicochemical
Experimental: as §1

## COC(=O)N[C@]1(C)Cc2ccc(NC(=O)c3cccc(C)c3-c3ccc(C(F)(F)F)cc3)cc2C1 [Compound I]
[1]
  Log P in octanol: 4.66
[2]
  solubility: 0.17 µg/mL (≈ 0.352 µM)
